# Measured values published in ChEMBL document CHEMBL1201862, “PubChem BioAssay data set” (2004).
#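 Test compounds were applied to cells in 96-well plates for 48 hours at 5 doses. At the GI50, growth is halved.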 Activity calls are given as the source filed them. Rule as the data show it: active = GI50 up to about 1.1 µM and inactive = higher.
# What was measured:
# Experiment in all cases: NCI anticancer screen, dose series, 48 h
# [1] = tested on: SK-MEL-28
# [2] = tested on: OVCAR-8
# [3] = tested on: IGROV-1
# [4] = tested on: HOP-62
# [5] = tested on: SNB-78
# [6] = tested on: DLD-1
# [7] = tested on: COLO 205
# [8] = tested on: RPMI-8226
# [9] = tested on: HCC 2998
# [10] = tested on: LXFL 529
# [11] = tested on: OVCAR-3
# [12] = tested on: EKVX
# [13] = tested on: SW-620
# [14] = tested on: TK-10
# [15] = tested on: HT-29
# [16] = tested on: KM12
# [17] = tested on: SF-295
# [18] = tested on: LOX IMVI
# [19] = tested on: NCI-H226
# [20] = tested on: ACHN
# [21] = tested on: SK-MEL-2
# [22] = tested on: M19-MEL
# [23] = tested on: K562
# [24] = tested on: KM-20L2
# [25] = tested on: SK-OV-3
# [26] = tested on: SK-MEL-5
# [27] = tested on: UACC-62
# [28] = tested on: M14
# [29] = tested on: Malme-3M
# [30] = tested on: NCI-H460
# [31] = tested on: SF-268
# [32] = tested on: SNB-75
# [33] = tested on: NCI-H23
# [34] = tested on: SF-539
# [35] = tested on: SNB-19
# [36] = tested on: HCT-15
# [37] = tested on: NCI-H522
# [38] = tested on: OVCAR-4
# [39] = tested on: RXF 393
# [40] = tested on: DMS-273
# [41] = tested on: A549
# [42] = tested on: CCRF-CEM
# [43] = tested on: HCT-116
# [44] = tested on: UACC-257
# [45] = tested on: MOLT-4
# [46] = tested on: U-251
# [47] = tested on: OVCAR-5
# [48] = tested on: HOP-92
# [49] = tested on: A498
# [50] = tested on: HOP-18
# [51] = tested on: HL-60
# [52] = tested on: DMS-114
# [53] = tested on: 786-0
# [54] = tested on: CAKI-1
# [55] = tested on: UO-31
# [56] = tested on: SN12C
# [57] = tested on: SR
smiles,measurement,setting,value
COc1ccc(C2Oc3cc(OC)c(O)c(C)c3[C@H]2C)cc1 (stereo partly drawn),GI50,[1],> 100 µM (inactive)
same,GI50,[2],70 µM (inactive)
same,GI50,[3],> 100 µM (inactive)
same,GI50,[4],> 100 µM (inactive)
same,GI50,[5],> 100 µM (inactive)
same,GI50,[6],> 100 µM (inactive)
same,GI50,[7],> 100 µM (inactive)
same,GI50,[8],> 10 µM (inactive)
same,GI50,[9],> 100 µM (inactive)
same,GI50,[10],71.6 µM (inactive)
same,GI50,[11],> 100 µM (inactive)
same,GI50,[12],26.6 µM (inactive)
same,GI50,[13],66.4 µM (inactive)
same,GI50,[14],> 100 µM (inactive)
same,GI50,[15],> 100 µM (inactive)
same,GI50,[16],> 100 µM (inactive)
same,GI50,[17],> 100 µM (inactive)
same,GI50,[18],40.5 µM (inactive)
same,GI50,[19],26.9 µM (inactive)
same,GI50,[20],54.2 µM (inactive)
same,GI50,[21],> 100 µM (inactive)
same,GI50,[22],> 100 µM (inactive)
same,GI50,[23],61.2 µM (inactive)
same,GI50,[24],> 100 µM (inactive)
same,GI50,[25],> 100 µM (inactive)
same,GI50,[26],62.7 µM (inactive)
same,GI50,[27],> 100 µM (inactive)
same,GI50,[28],> 100 µM (inactive)
same,GI50,[29],> 100 µM (inactive)
same,GI50,[30],38.2 µM (inactive)
same,GI50,[31],41.4 µM (inactive)
same,GI50,[32],7.87 µM (inactive)
same,GI50,[33],57.3 µM (inactive)
same,GI50,[34],> 100 µM (inactive)
same,GI50,[35],26.9 µM (inactive)
same,GI50,[36],58.9 µM
same,GI50,[37],35.2 µM (inactive)
same,GI50,[38],80.4 µM (inactive)
same,GI50,[39],23 µM (inactive)
same,GI50,[40],73.3 µM (inactive)
same,GI50,[41],> 100 µM (inactive)
same,GI50,[42],36.2 µM (inactive)
same,GI50,[43],35.6 µM (inactive)
same,GI50,[44],> 100 µM (inactive)
same,GI50,[45],33.3 µM (inactive)
same,GI50,[46],> 100 µM (inactive)
same,GI50,[47],> 100 µM (inactive)
same,GI50,[48],> 100 µM (inactive)
same,GI50,[49],79.4 µM (inactive)
same,GI50,[50],19 µM (inactive)
same,GI50,[51],18.2 µM (inactive)
same,GI50,[52],58.7 µM (inactive)
same,GI50,[53],> 100 µM (inactive)
same,GI50,[54],> 100 µM (inactive)
same,GI50,[55],17.1 µM (inactive)
[N-]=[N+]=NC(CCl)c1cn([C@H]2C[C@H](O)[C@@H](CO)O2)c(=O)[nH]c1=O (stereo partly drawn),GI50,[1],> 100 µM (inactive)
same,GI50,[2],> 100 µM (inactive)
same,GI50,[3],> 100 µM (inactive)
same,GI50,[4],> 100 µM (inactive)
same,GI50,[5],> 100 µM (inactive)
same,GI50,[6],> 100 µM (inactive)
same,GI50,[7],> 100 µM (inactive)
same,GI50,[8],> 100 µM (inactive)
same,GI50,[9],> 100 µM (inactive)
same,GI50,[10],> 100 µM (inactive)
same,GI50,[11],> 100 µM (inactive)
same,GI50,[12],> 100 µM (inactive)
same,GI50,[13],> 100 µM (inactive)
same,GI50,[14],> 100 µM (inactive)
same,GI50,[15],> 100 µM (inactive)
same,GI50,[16],> 100 µM (inactive)
same,GI50,[17],> 100 µM (inactive)
same,GI50,[18],> 100 µM (inactive)
same,GI50,[19],> 100 µM (inactive)
same,GI50,[20],> 100 µM (inactive)
same,GI50,[21],> 100 µM (inactive)
same,GI50,[22],> 100 µM (inactive)
same,GI50,[23],> 100 µM (inactive)
same,GI50,[24],> 100 µM (inactive)
same,GI50,[25],> 100 µM (inactive)
same,GI50,[26],> 100 µM (inactive)
same,GI50,[27],> 100 µM (inactive)
same,GI50,[28],> 100 µM (inactive)
same,GI50,[29],> 100 µM (inactive)
same,GI50,[30],> 100 µM (inactive)
same,GI50,[32],> 100 µM (inactive)
same,GI50,[33],> 100 µM (inactive)
same,GI50,[34],> 100 µM (inactive)
same,GI50,[35],> 100 µM (inactive)
same,GI50,[36],> 100 µM
same,GI50,[37],> 100 µM (inactive)
same,GI50,[39],> 100 µM (inactive)
same,GI50,[40],> 100 µM (inactive)
same,GI50,[41],> 100 µM (inactive)
same,GI50,[56],> 100 µM (inactive)
same,GI50,[42],> 100 µM (inactive)
same,GI50,[43],> 100 µM (inactive)
same,GI50,[45],> 100 µM (inactive)
same,GI50,[46],> 100 µM (inactive)
same,GI50,[47],> 100 µM (inactive)
same,GI50,[48],> 100 µM (inactive)
same,GI50,[57],> 100 µM (inactive)
same,GI50,[50],> 100 µM (inactive)
same,GI50,[51],> 100 µM (inactive)
same,GI50,[52],> 100 µM (inactive)
same,GI50,[53],> 100 µM (inactive)
same,GI50,[54],> 100 µM (inactive)
same,GI50,[55],> 100 µM (inactive)
